Laboratory results published in patent US4317768A, “Dihydropyridine derivatives as stabilizers for vinyl chloride polymers” (priority 1977, dated 1982).

Experiments:
[1] = Static thermostability (GARDNER method), rigid PVC sheets, 210° C., 0.3 part stabilizer; details: for thermostabilizing power compared to 2-phenyl-indole, in words: 210° C.
Procedure: (§1) This study was carried out according to the GARDNER method, described in British Pat. No. 1,489,685.
(§2) The reference substance was 2-phenyl-indole, a well-known and widely used stabilizer.
(§3) The stabilizer (dihydropyridine or 2-phenyl-indole) and the other usual ingredients were mixed with powdered vinyl resins and the mixtures were calendered at a temperature of 160° C. to give rigid sheets.
(§4) The sheets were then heated in a thermostated oven (185° C. or 210° C.) for different intervals of time until incipient carbonization.
(§5) The coloration of the samples was compared to a standard scale of coloration, known as the GARDNER scale and was expressed in terms of the reference figures of the GARDNER scale.
(§6) This study was carried out with the following resin:
(§7) Polyvinyl chloride resin
(§8) SL 2016 is a solution of zinc-2-ethyl-hexanoate in a mixture of hydrocarbons boiling between 158° C. and 184° C.
The first trial was carried out at 210° C. with a resin containing 0.3 part by weight of stabilizer, the sheets being removed from the oven every three minutes over a period of 21 minutes.

[2] = Static thermostability (GARDNER method), rigid PVC sheets, 185° C., 0.3 part stabilizer
Procedure: as §1, §2, §3, §4, §5, §6, §7, §8
A second trial was performed at a temperature of 185° C., with a resin containing 0.3 part of stabilizer, the samples being removed from the oven every 6 minutes over a period of 24 minutes, then every 3 minutes until the 42nd minute (or until carbonization).

[3] = Static thermostability (GARDNER method), rigid PVC sheets, 185° C., equimolecular quantities; details: 1.55×10^-3 mol
Procedure: as §1, §2, §3, §4, §5, §6, §7, §8
Finally, a trail was performed at 185° C., with resins containing equimolecular quantities of the dihydropyridines or of 2-phenyl-indole, namely 1.55×10^-3 mol. In this case too, the samples were removed from the oven every 6 minutes over a period of 24 minutes and then every 3 minutes until the 42nd minute (or until carbonization).

Compound	coloration, GARDNER scale ([1]; 0 min)	coloration, GARDNER scale ([1]; 3 min)	coloration, GARDNER scale ([1]; 6 min)	coloration, GARDNER scale ([1]; 9 min)	coloration, GARDNER scale ([1]; 12 min)	coloration, GARDNER scale ([1]; 15 min)	coloration, GARDNER scale ([1]; 18 min)	coloration, GARDNER scale ([1]; 21 min)	further results
CC1=C(C(=O)OCCCl)CC(C(=O)OCCCl)=C(C)N1 [Compound 3, 2,6-Dimethyl-3,5-di-(2'-carbochloro-ethoxy)-1,4-dihydroyridine]	1	1	3	4	5	10.5	Burnt		thermostabilizing power compared to 2-phenyl-indole, in words [1]: greatly superior to 2-phenyl-indole; coloration, GARDNER scale ([2]; 0 min): 1; coloration, GARDNER scale ([2]; 6 min): 1; coloration, GARDNER scale ([2]; 12 min): 5; coloration, GARDNER scale ([2]; 18 min): 8; coloration, GARDNER scale ([2]; 24 min): 10; coloration, GARDNER scale ([2]; 27 min): 10.5; coloration, GARDNER scale ([2]; 30 min): 13; coloration, GARDNER scale ([2]; 33 min): 14; coloration, GARDNER scale ([2]; 36 min): 18; coloration, GARDNER scale ([2]; 39 min): 18; coloration, GARDNER scale ([2]; 42 min): Burnt
COc1ccc(COC(=O)C2=C(C)NC(C)=C(C(=O)OCc3ccc(OC)cc3)C2)cc1 [Compound 4]	1	1	2	4	6	11	Burnt		coloration of the resins, in words ([1]; 0 to 3 minutes): considerably less; coloration, GARDNER scale ([2]; 0 min): 1; coloration, GARDNER scale ([2]; 6 min): 1; coloration, GARDNER scale ([2]; 12 min): 2; coloration, GARDNER scale ([2]; 18 min): 8; coloration, GARDNER scale ([2]; 24 min): 13; coloration, GARDNER scale ([2]; 27 min): 14; coloration, GARDNER scale ([2]; 30 min): 17; coloration, GARDNER scale ([2]; 33 min): 18; coloration, GARDNER scale ([2]; 36 min): Burnt; coloration, GARDNER scale ([3]; 0 min): 1; coloration, GARDNER scale ([3]; 6 min): 1; coloration, GARDNER scale ([3]; 12 min): 1; coloration, GARDNER scale ([3]; 18 min): 4; coloration, GARDNER scale ([3]; 24 min): 6; coloration, GARDNER scale ([3]; 27 min): 8; coloration, GARDNER scale ([3]; 30 min): 11; coloration, GARDNER scale ([3]; 33 min): 15; coloration, GARDNER scale ([3]; 36 min): Burnt
CC1=C(C(=O)OCc2ccc(Cl)cc2)CC(C(=O)OCc2ccc(Cl)cc2)=C(C)N1 [Compound 7, 2,6-Dimethyl-3,5-di-(4'carbochloro-benzyloxy)-1,4-dihydropyridine]	1	1	2	4	10.5	14	Burnt		
CCCCCCC1C(C(=O)OC)=C(C)NC(C)=C1C(=O)OC [Compound 8, 2,6-Dimethyl-3,5-dicarbomethoxy-4-hexyl-1,4-dihydropyridine]	1	2	3	6	8	10.5	11	Burnt	
CCOC(=O)C1=C(Cc2ccccc2)NC(Cc2ccccc2)=C(C(=O)OCC)C1 [Compound 16, 2,6-Dibenzyl-3,5-dicarbethoxy-1,4-dihydropyridine]	1	1	3	4	11	18	Burnt		thermostabilizing power compared to 2-phenyl-indole, in words [1]: greatly superior to 2-phenyl-indole
C=CCCC1=C(C(=O)OC)CC(C(=O)OC)=C(CCC=C)N1 [Compound 17, 2,6-Di-(3-butenyl)-3,5-dicarbomethoxy-1,4-dihydropyridine]	1	1	2	8	9	Burnt			thermostabilizing power compared to 2-phenyl-indole, in words [1]: greatly superior to 2-phenyl-indole
COC(=O)C1=C(c2ccccc2)NC(c2ccccc2)=C(C(=O)OC)C1 [Compound 18, 2,6-Diphenyl-3,5-dicarbomethoxy-1,4-dihydropyridine]	1	1	2	2	2	3	6	Burnt	
CC1=C(C(=O)OCCOCCCl)CC(C(=O)OCCOCCCl)=C(C)N1 [Compound 19, 2,6-Dimethyl-3,5-di-(2"-carbochloro-2'ethoxy-ethoxy)-1,4-dihydropyridine]	1	1	1	2	3	10	13	Burnt	
CCCCCCCCCCCCCC1=C(C(=O)OC)CC(C(=O)OC)=C(CCCCCCCCCCCCC)N1 [Compound 20, 2,6-Ditridecyl-3,5-dicarbomethoxy-1,4-dihydropyridine]	1	1	1.5	2	2	2.5	4	7	
CC1=C(C(=O)OCC=Cc2ccccc2)CC(C(=O)OCC=Cc2ccccc2)=C(C)N1 [Compound 22, 2,6-Dimethyl-3,5-dicarbocinnamyloxy-1,4-dihydropyridine]	1	1	2	4	11	Burnt			
COC(=O)C1=C(C)NC(C)=C(C(=O)OC)C1c1ccccc1 [Compound 23, 2,6-Dimethyl-3,5-dicarbomethoxy-4-phenyl-1,4-dihydropyridine]	1	2	3	13	14	15	Burnt		
COCCOC(=O)C1=C(C)NC(C)=C(C(=O)OCCOC)C1 [Compound 25]	1	1	1	1	1	4	11	17	
CCOCCOC(=O)C1=C(C)NC(C)=C(C(=O)OCCOCC)C1 [Compound 26]	1	1	1	1	1.5	3	11	Burnt	
